Measured values from patent publication US20170240556A1, “BIFLUORODIOXALANE-AMINO-BENZIMIDAZOLE KINASE INHIBITORS FOR THE TREATMENT OF CANCER, AUTOIMMUNEINFLAMMATION AND CNS DISORDERS” (4SC DISCOVERY GMBH, priority 2012, published 2017).

Assays:
Assay in all cases: Proliferation Assay
Format in all cases: cell-based
HEPG2 (liver) = settings: Homo sapiens, 72 h, read-out: IC50 inhibition of cell growth
Procedure: (§1) For the determination of the inhibitory capacity of compounds of the present invention (in the following: “test compound(s)”) on cell growth, cancer cells were seeded into microtitre plates, treated with different concentrations of test compound or left untreated, and after 72 h the protein content was determined as an equivalent for the cell number.
(§2) Test compounds were dissolved in 100% DMSO and predilutions in cell culture medium were prepared with a final concentration of 0.1% DMSO in medium. The cell culture medium for dilution of the test compounds, consecutive culturing of cell lines and usage during the assay was a cell line specific medium as recommended by the cell line supplier and identical for all three applications mentioned above. After a 24-hour pre-growth period of the seeded cancer cells, the test compound containing media or medium containing 0.1% DMSO as control was added to the cells. The cells were allowed to grow at 37° C. for 72 hours. In addition, all experiments contained a few plates with cells that were processed for measurement immediately after the 24 hours recovery period. These plates contained information about the cell number that existed before treatment, at time zero, and served to calculate the cytotoxicity and/or growth inhibitory effects.
(§3) After treatment, cells were precipitated by addition of 10% TCA (trichloracetic acid). Prior to fixation, the media was aspirated. After an hour of incubation at 4° C. the plates were washed twice with 400 μl of deionized water. Cells were then stained with 100 μl of a 0.08% wt/v SRB (sulforhodamine). The plates were allowed to sit for at least 30 min and washed six times with 1% acetic acid to remove unbound staining agent. The plates were left to dry at room temperature and bound SRB was solubilized with 100 μl of 10 mM Tris base. Measurement of optical density was performed at 560 nm on a Victor 2 plate reader (Perkin Elmer, Germany).
(§4) One common way to express the effect of an anticancer agent is to measure cell viability and survival in the presence of the test agent as % Treated/Control×100. The relationship between the viability and dose is called a dose response curve. Those dose response curves were determined by using algorithms developed by Oncolead GmbH & Co. KG, Munich, Germany, that can be compared to commercial applications, e.g. XLfit™ (ID Business Solutions Ltd., Guildford, UK) algorithm “205”.

SKNSH (brain) = settings: Homo sapiens, SK-N-SH, 72 h, read-out: IC50 inhibition of cell growth
Procedure: as §1, §2, §3, §4

HS729 (muscle) = settings: 72 h, read-out: IC50 inhibition of cell growth
Procedure: as §1, §2, §3, §4

MIAPACA2 (pancreas) = settings: Homo sapiens, MIA PaCa-2, 72 h, read-out: IC50 inhibition of cell growth
Procedure: as §1, §2, §3, §4

SKBR3 (breast) = settings: Homo sapiens, SK-BR-3, 72 h, read-out: IC50 inhibition of cell growth
Procedure: as §1, §2, §3, §4

SKOV3 (ovary) = settings: Homo sapiens, SK-OV-3, 72 h, read-out: IC50 inhibition of cell growth
Procedure: as §1, §2, §3, §4

HT29 (colon) = settings: Homo sapiens, HT-29, 72 h, read-out: IC50 inhibition of cell growth
Procedure: as §1, §2, §3, §4

MDAMB468 (breast) = settings: Homo sapiens, MDA-MB-468, 72 h, read-out: IC50 inhibition of cell growth
Procedure: as §1, §2, §3, §4

A204 (muscle) = settings: Homo sapiens, 72 h, read-out: IC50 inhibition of cell growth
Procedure: as §1, §2, §3, §4

PANC1005 (pancreas) = settings: Homo sapiens, 72 h, read-out: IC50 inhibition of cell growth
Procedure: as §1, §2, §3, §4

SKLMS1 (uterus) = settings: Homo sapiens, SK-LMS-1, 72 h, read-out: IC50 inhibition of cell growth
Procedure: as §1, §2, §3, §4

RD (muscle) = settings: 72 h, read-out: IC50 inhibition of cell growth
Procedure: as §1, §2, §3, §4

PLCPRFS (liver) = settings: 72 h, read-out: IC50 inhibition of cell growth
Procedure: as §1, §2, §3, §4

NCIH460 (lung) = settings: Homo sapiens, NCI-H460, 72 h, read-out: IC50 inhibition of cell growth
Procedure: as §1, §2, §3, §4

ACHN (kidney) = settings: Homo sapiens, 72 h, read-out: IC50 inhibition of cell growth
Procedure: as §1, §2, §3, §4

OVCAR3 (ovary) = settings: Homo sapiens, OVCAR-3, 72 h, read-out: IC50 inhibition of cell growth
Procedure: as §1, §2, §3, §4

PANC1 (pancreas) = settings: Homo sapiens, PANC-1, 72 h, read-out: IC50 inhibition of cell growth
Procedure: as §1, §2, §3, §4

JEG3 (placenta) = settings: Homo sapiens, JEG-3, 72 h, read-out: IC50 inhibition of cell growth
Procedure: as §1, §2, §3, §4

IGROV1 (ovary) = settings: Homo sapiens, IGROV-1, 72 h, read-out: IC50 inhibition of cell growth
Procedure: as §1, §2, §3, §4

786O (kidney) = settings: Homo sapiens, 786-0, 72 h, read-out: IC50 inhibition of cell growth
Procedure: as §1, §2, §3, §4

SAOS2 (bone) = settings: Homo sapiens, SAOS-2, 72 h, read-out: IC50 inhibition of cell growth
Procedure: as §1, §2, §3, §4

CAKI1 (kidney) = settings: Homo sapiens, CAKI-1, 72 h, read-out: IC50 inhibition of cell growth
Procedure: as §1, §2, §3, §4

SW620 (colon) = settings: Homo sapiens, SW-620, 72 h, read-out: IC50 inhibition of cell growth
Procedure: as §1, §2, §3, §4

U2OS (bone) = settings: Homo sapiens, 72 h, read-out: IC50 inhibition of cell growth
Procedure: as §1, §2, §3, §4

CLS439 (bladder) = settings: 72 h, read-out: IC50 inhibition of cell growth
Procedure: as §1, §2, §3, §4

NCIH292 (lung) = settings: Homo sapiens, NCI-H292, 72 h, read-out: IC50 inhibition of cell growth
Procedure: as §1, §2, §3, §4

IC50 (HEPG2 (liver)): ≤ 1000 nM | IC50 (SKNSH (brain)): ≤ 1000 nM | IC50 (MIAPACA2 (pancreas)): ≤ 1000 nM | IC50 (SKBR3 (breast)): ≤ 1000 nM | IC50 (SKOV3 (ovary)): ≤ 1000 nM | IC50 (HT29 (colon)): ≤ 1000 nM | IC50 (MDAMB468 (breast)): ≤ 1000 nM | IC50 (PANC1005 (pancreas)): ≤ 1000 nM | IC50 (SKLMS1 (uterus)): ≤ 1000 nM | IC50 (ACHN (kidney)): ≤ 1000 nM | IC50 (OVCAR3 (ovary)): ≤ 1000 nM | IC50 (PANC1 (pancreas)): ≤ 1000 nM | IC50 (SW620 (colon)): ≤ 1000 nM | IC50 (U2OS (bone)): ≤ 1000 nM
SMILES: COc1cccc(C(=O)Nc2nc3cc4c(cc3[nH]2)OC(F)(F)O4)c1 [Compound 56, N-(2,2-difluoro-5H-[1,3]dioxolo[4′,5′:4,5]benzo[1,2-d]imidazol-6-yl)-3-methoxybenzamide]
IC50 (HS729 (muscle)): ≤ 1000 nM | IC50 (A204 (muscle)): ≤ 1000 nM | IC50 (RD (muscle)): ≤ 1000 nM | IC50 (PLCPRFS (liver)): ≤ 1000 nM | IC50 (NCIH460 (lung)): ≤ 1000 nM | IC50 (JEG3 (placenta)): ≤ 1000 nM | IC50 (IGROV1 (ovary)): ≤ 1000 nM | IC50 (786O (kidney)): ≤ 1000 nM | IC50 (SAOS2 (bone)): ≤ 1000 nM | IC50 (CAKI1 (kidney)): ≤ 1000 nM | IC50 (CLS439 (bladder)): ≤ 1000 nM | IC50 (NCIH292 (lung)): ≤ 1000 nM
